The source made the active and inactive calls. Rule as the data show it: actives have a measured IC50 and inactives only a lower limit.

The assay deals with Envelope glycoprotein gp160 (Human immunodeficiency virus 1, UniProt Q6QLK5). The assay is described as follows: inhibitors of HIV fusion peptide binding, primary screen, biochemical, uHTS, fluorescence dequenching (AID 1986).
Envelope glycoprotein gp160, sequence (Q6QLK5 whole entry, the tested form may be a part): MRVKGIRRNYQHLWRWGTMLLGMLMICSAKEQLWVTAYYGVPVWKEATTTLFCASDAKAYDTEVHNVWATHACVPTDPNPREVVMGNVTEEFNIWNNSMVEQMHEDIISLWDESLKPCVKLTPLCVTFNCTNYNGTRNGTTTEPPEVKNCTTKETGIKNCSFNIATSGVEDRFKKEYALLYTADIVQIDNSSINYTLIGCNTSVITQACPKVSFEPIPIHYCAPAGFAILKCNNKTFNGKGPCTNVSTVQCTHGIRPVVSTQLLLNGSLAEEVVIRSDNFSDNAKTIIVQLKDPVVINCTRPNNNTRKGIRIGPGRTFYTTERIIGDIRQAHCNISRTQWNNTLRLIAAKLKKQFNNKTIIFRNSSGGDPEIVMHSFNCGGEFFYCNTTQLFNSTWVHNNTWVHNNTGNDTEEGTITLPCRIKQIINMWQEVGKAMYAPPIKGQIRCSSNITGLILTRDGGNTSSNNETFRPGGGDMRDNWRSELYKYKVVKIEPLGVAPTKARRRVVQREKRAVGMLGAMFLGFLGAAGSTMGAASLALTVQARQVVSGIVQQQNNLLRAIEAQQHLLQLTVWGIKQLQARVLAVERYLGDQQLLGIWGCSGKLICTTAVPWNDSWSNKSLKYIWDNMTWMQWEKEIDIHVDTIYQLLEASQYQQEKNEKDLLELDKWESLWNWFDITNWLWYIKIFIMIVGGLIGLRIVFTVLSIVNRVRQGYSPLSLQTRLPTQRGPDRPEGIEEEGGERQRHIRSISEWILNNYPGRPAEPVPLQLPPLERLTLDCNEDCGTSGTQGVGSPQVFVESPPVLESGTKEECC

Turning to `O=C(N/N=C/c1ccc(-c2ccc(S(=O)(=O)Nc3ncccn3)cc2)o1)c1cc2ccccc2cc1O`, the half-maximal inhibitory concentration (IC50) (in general, the concentration that inhibits the measured activity by half) was 5.36 µM (active).

For the origin of these results see ChEMBL document CHEMBL1201862, “PubChem BioAssay data set” (2004).
